In US20070071783A1, “Pheromone attractants for the green mirid” (priority 2004, published 2007):
Marks after values point to notes of the source that are not given here.

Legend:
[1] = tested on: Phytocoris californicus; conditions: Millar & Rice 1998; Millar et al. 1997; cited from earlier work
[2] = tested on: green mirid, Creontiades dilutus; test: Field trapping bioassays: rubber septa lures in delta traps; assay type: in vivo; conditions: Experiment 1, soybeans, Cecil Plains; for Mean trap catch: 2 mg lure, mean ± s.e.
Experimental: A series of trials involving blends of the major component, hexyl hexanoate and the minor component (E)-2 hexenyl hexanoate in various ratios, as coded and presented in Table 1, as well as the single components, were tested in a series of field trapping experiments. After the initial optimisation, two other components (methyl salicylate and (Z)-3 hexenyl acetate), found in both the male and female extracts, were tested by adding them to the optimised blend.
Lures were prepared using rubber septa. Each lure was loaded with 2 mg of the blend with 10% butylated hydroxytoluene (BHT) added as an anti-oxidant. Control lures were loaded with BHT only.
Field experiments were conducted at Cecil Plains (Qld), Narrabri, Tamworth, Mullaley and Armidale (NSW). The experimental designs were Latin Squares with treatment (pheromone blend), trap position and day as the factors. Traps were placed in a grid at intervals of 25-50 m, cleared daily, and rotated to different positions in the Latin Square designs. Delta traps made out of plastic (Corflute®) were used.
This experiment aimed to test blends against individual components of the female sex pheromone. A 4×4 Latin square design with 4 rotation periods, 4 blend locations and 4 treatments was set up in soybeans in Cecil Plains. Traps were located 100 m from each other and cleared every day before rotation. […] They were only caught in traps baited with the blend GM1 at an average of 3.9 males per trap. All insects caught were sexed morphologically and found to be males. […]
A 3×3 Latin Square experiment, replicated at two different sites in mung beans and one site in a slashed lucerne field was set up in Mullaley, NSW. This experiment involved blends GM2, GM12, GM13. In the mung beans at Site 1, blend type was the only significant factor (P<0.01).
Blends GM2, GM12, GM17 and GM19 were tested in a 4×4 Latin Square experiment in lucerne at Piallamore, NSW. […] Analysis of variance on the logarithmically transformed data indicated no significant differences (P>0.05) between the blends.
This experiment aimed at testing the effect of septa loading on trap catches. It involved the use of blend GM2 with a 2, 20 and 40 mg loading respectively. The ratio of hexyl hexanoate to (E)-2-hexenyl acetate in all blends was 5:1. The design was a 3×3 Latin Square set up at two different sites in mung beans at Mullaley, NSW. […] Trap location and day were also non significant (Table 11).
This experiment aimed at testing the effects of methyl salicylate and (Z)-3 hexenyl acetate, identified in both male and female extracts on the optimised blend. The hypothesis was that they might increase the attractiveness of the blend. Blends GM2, GM14, GM15 and GM16 were used in a 4×4 Latin Square experiment conducted in lucerne at Piallamore, NSW. […]

[3] = tested on: green mirid, Creontiades dilutus; test: Attract-and-kill Experiment 1: sprayed-on formulation with added insecticide (methomyl); assay type: in vivo; conditions: pigeon peas, Mullaley, about 2.3% volatiles in carrier, methomyl 0.5%, 5 m of row
Source text: The trial was set up in late flowering pigeon peas near Mullaley, NSW. The pheromone components were mixed with the formulation base from Magnet®, the commercial embodiment of the compositions described in WO 02/089577, the contents of which are incorporated herein by reference.
The plant volatile components of Magnet® were not included. The toxicant was methomyl at a concentration of 0.5% active ingredient.
There were four treatments: • 1) Control (no pheromone components added; carrier only) • 2) 12 ml hexyl hexanoate added to 500 ml of carrier • 3) 12 ml (E)-2 hexenyl hexanoate added to 500 ml of carrier • 4) 10 ml hexyl hexanoate plus 2 ml (E)-2 hexenyl hexanoate added to 500 ml carrier
Thus, in treatments 2-4 the final concentration of volatile pheromone components was about 2.3%. Treatment 4 had the two components in the optimum ratio as determined by trapping experiments.
Approximately 100 ml of each mixture was applied to 5 m of row of the pigeon peas, being shaken from a plastic bottle onto the tops of the plants. There were three replicates of each treatment, with buffer zones of 20 m surrounding them. Black plastic weed mat, 90 cm wide, was placed in the furrows on both sides,of the treated rows. It was secured around the bases of the plants using clothes pegs. This was done to facilitate finding dead GM. The treated areas were searched each morning over the next three days, and any dead GM found were sexed. Two pheromone traps, using blend GM2 as previously described, were also operated near the experimental site. At the conclusion of the experiment, five replicate samples using beat sheets were taken in the vicinity of the sprayed regions.

[4] = tested on: mullein bug, Campylomma verbasci; conditions: blend released at rates of 91 and 183 μL per day; Smith et al. 1991, McBrien et al. 1994; cited from earlier work
[5] = tested on: Phytocoris relativus; conditions: Millar & Rice 1998; cited from earlier work
[6] = Day 1, standard error in brackets

CCCCC/C=C/COC(=O)CCC [(E)-2-octenyl butyrate]
Inhibition of attraction of P. californicus males to traps [1]: inhibited attraction

CCCCCCOC(=O)CCCCC [GM5, hexyl hexanoate]
GM caught in baited traps, average [2]: did not attract any GM
Mean trap catch [2]: 0.0 ± 0^b
Mean number of female adults found (killed) [3, 6]: 1.3 (0.3)
Mean number of male adults found (killed) [3, 6]: 1.3 (0.3)
Mean number of nymphs found (killed) [3, 6]: 0.3
Mean number of female adults found (killed) ([3]; Day 2): 0
Mean number of male adults found (killed) ([3]; Day 2): 0
Mean number of nymphs found (killed) ([3]; Day 2): 0

C/C=C/COC(=O)CCC [(E)-2-butenyl butyrate]
Attractiveness of lures in field studies [4]: inactive

CCCCOC(=O)CCC [butyl butyrate]
Attractiveness of lures in field studies [4]: inactive

CCCCC/C=C/COC(C)=O [(E)-2-octenyl acetate]
Inhibition of P. relativus males [5]: did not inhibit

CCC/C=C/COC(=O)CCCCC [GM6, (E)-2-hexenyl hexanoate]
GM caught in baited traps, average [2]: did not attract any GM
Mean trap catch [2]: 0.0 ± 0^b
Mean number of female adults found (killed) [3, 6]: 1.0 (1.0)
Mean number of male adults found (killed) [3, 6]: 3.0 (1.1)
Mean number of nymphs found (killed) [3, 6]: 0.3 (0.3)
Mean number of female adults found (killed) ([3]; Day 2): 0
Mean number of male adults found (killed) ([3]; Day 2): 1.3
Mean number of nymphs found (killed) ([3]; Day 2): 0
